Experiments:
[1] = Dynamic Vapor Sorption (DVS) moisture sorption/desorption isotherm at 25° C.; type: physicochemical
Procedure: Moisture sorption/desorption isotherms were recorded on a SPS11-10μ from Projekt Messtechnik (Ulm, Germany). One cycle was run at 25° C., in which the sample was first stepwise decreased to 0% RH and then the relative humidity was stepwise increased from 0 to 95% and the weight of the sample was measured. Typical total measurement times for both cycles were about 20 to 30 hours.
The measurement was performed as disclosed in Example 7 with (R)-3-[6-amino-pyridin-3-yl]-2-(1-cyclohexyl-1H-imidazol-4-yl)-propionic acid (free acid, amorphous) and the received data are shown in the following table 2.

[2] = Chemical stability under elevated temperature and humidity; type: physicochemical; details: result in words

## Nc1ccc(CC(C(=O)O)c2cn(C3CCCCC3)cn2)cn1 (stereo not shown) [3-[6-amino-pyridin-3-yl]-2-(1-cyclohexyl-1H-imidazol-4-yl)-propionic acid, reference compound]
[1]; result in words
  hygroscopicity (absorption or adsorption of water molecules from the surrounding environment): hygroscopic

## Nc1ccc(C[C@@H](C(=O)[O-])c2cn(C3CCCCC3)cn2)cn1.[Na+] [(R)-3-[6-amino-pyridin-3-yl]-2-(1-cyclohexyl-1H-imidazol-4-yl)-propionic acid sodium salt monohydrate]
[1]; DVS 25° C., at 0.2% RH, phase transition monohydrate to anhydrate
  desorption of water: −4.4%

## Nc1ccc(C[C@@H](C(=O)O)c2cn(C3CCCCC3)cn2)cn1 [(R)-3-[6-amino-pyridin-3-yl]-2-(1-cyclohexyl-1H-imidazol-4-yl)-propionic acid]
[2]
  chemical stability: chemically not stable
  enantiomeric purity on storage: reduced within a short time

Reference: patent US9145385B2, “Crystalline salts of R)-3-[6-amino-pyridin-3-yl]-2-(1-cyclohexy1-1H-imidazol-4-yl)-propionic acid” (Sanofi, priority 2011, dated 2015)
